Results as given in patent US20140212487A1, “SOLID DISPERSION FORMULATION OF AN ANTIVIRAL COMPOUND” (priority 2013, published 2014).
Read-outs that look alike come from different tables or passages of the source.

Tests used:
[1] = Pharmacokinetics after oral administration of tablets in beagle dogs; assay type: in vivo; parameters: AUC0-24, mean (RSD) / F / AUC(0-t): dose or concentration left out as unconfirmed; settings: pentagastrin pretreatment
Description: A series of in vivo experiments were conducted to evaluate the potential benefit of the solid dispersion approach relative to conventional formulations, as well as to optimize the solid dispersion by identifying the most beneficial polymer type and relative polymer concentration within the dispersion.
Pentagastrin is a synthetic polypeptide that stimulates the secretion of gastric acid, pepsin, and intrinsic factor. […]

[2] = Chemical stability in the ethanolic feed solution
HCV [3] = assay: Breakthrough (BT) rate of ledipasvir in combination with other therapeutic agents; assay type: in vivo, Hepatitis C virus
Description: Therefore, the 90 mg dose of ledipasvir may confer a greater antiviral coverage that prevents viral breakthrough.

HCV [4] = assay: Antiviral response for dose selection of ledipasvir in HCV infected subjects; assay type: in vivo, Hepatitis C virus
Description: The maximum median HCV RNA log 10 reduction was 3 or greater for all cohorts dosed with >3 mg of ledipasvir. […] Therefore, 30 mg and 90 mg of ledipasvir were selected as the dose for the formulations described herein.

clinical = settings: in vivo, 30 mg; for half-life: t1/2, conventional formulation, median; for AUC(0-inf): AUCinf; for AUC(0-inf) / AUC(0-t) / Cmax / Vd/F: conventional formulation; for AUC(0-t): AUClast; for Vd/F: Vz/F
[5] = Aqueous solubility screening of ledipasvir in the presence of polymers; assay type: physicochemical
Description: Solubility screening experiments were performed for ledipasvir in the presence of a variety of polymers, including hydroxypropyl cellulose, hypromellose, povidone and copovidone. […] Hypromellose, povidone, and copovidone increased the solubility of ledipasvir. […] Thus, in one embodiment, the polymer is selected from hypromellose, povidone, and copovidone.

[6] = conventional formulation; for Clast, mean: 30 mg single dose
[7] = Solubility of ledipasvir in spray dry feed solvents; assay type: physicochemical; settings: organic solvent or mixture
Description: The feed solution was initially evaluated for appropriate solvent with regard to solubility, stability, and viscosity. […] Ethanolic and DCM-based feed stocks were assessed for preparation ease and spray dried at a range of inlet and outlet temperatures to assess the robustness of the spray dry process. Both solvents gave rapid dissolution of ledipasvir and copovidone.

[8] = po, Geometric Least Squares Mean (GLSM), fasted
[9] = po, Geometric Least Squares Mean (GLSM), fed
[10] = po, mean, 30 mg single dose, fasted
[11] = po, mean, 30 mg single dose, fed (high-fat meal)
[12] = 30 mg, high-fat meal versus fasted

Compound: COC(=O)N[C@H](C(=O)N1CC2(CC2)C[C@H]1c1ncc(-c2ccc3c(c2)C(F)(F)c2cc(-c4ccc5nc([C@@H]6[C@H]7CC[C@H](C7)N6C(=O)[C@@H](NC(=O)OC)C(C)C)[nH]c5c4)ccc2-3)[nH]1)C(C)C [Amorphous Free base]
- AUC(0-t) ([1]; dog, in vivo, read-out: AUC0-24, mean (RSD)): 8.03 µM·h
- Cmax ([1]; dog, in vivo, read-out: Cmax, mean (RSD)): 743 nM
- F [1]: 71%

Compound: COC(=O)N[C@H](C(=O)N1CC2(CC2)C[C@H]1c1ncc(-c2ccc3c(c2)C(F)(F)c2cc(-c4ccc5nc([C@@H]6[C@H]7CC[C@H](C7)N6C(=O)[C@@H](NC(=O)OC)C(C)C)[nH]c5c4)ccc2-3)[nH]1)C(C)C.O=C(O)C(O)C(O)C(=O)O [Crystalline D-tartrate]
- AUC0-24, mean (RSD) [1]: 7623 (44) nM * hr
- F [1]: 67%

Compound: COC(=O)N[C@H](C(=O)N1CC2(CC2)C[C@H]1c1ncc(-c2ccc3c(c2)C(F)(F)c2cc(-c4ccc5nc([C@@H]6[C@H]7CC[C@H](C7)N6C(=O)[C@@H](NC(=O)OC)C(C)C)[nH]c5c4)ccc2-3)[nH]1)C(C)C [Ledipasvir, (1-{3-[6-(9,9-difluoro-7-{2-[5-(2-methoxycarbonylamino-3-methyl-butyryl)-5-aza-spiro[2.4]hept-6-yl]-3H-imidazol-4-yl}-9H-fluoren-2-yl)-1H-benzoimidazol-2-yl]-2-aza-bicyclo[2.2.1]heptane-2-carbonyl}-2-methyl-propyl)-carbamic acid methyl ester]
- chemical stability in the ethanolic feed solution [2]: good chemical stability
- breakthrough (BT) rate (HCV [3]; 30 mg ledipasvir in combination with other therapeutic agents, 11/33): 33%
- breakthrough (BT) rate (HCV [3]; 90 mg ledipasvir in combination with other therapeutic agents, 9/74): 12%
- maximum median HCV RNA log 10 reduction (HCV [4]; all cohorts dosed with >3 mg of ledipasvir): ≥ 3 log 10
- fraction of maximal antiviral response (Emax PK/PD model) (HCV [4]; exposures after 30 mg dose, genotype 1a HCV infected subjects): > 95%
- half-life (clinical; 30 mg single dose, fasted): 39.8 h
- half-life (clinical; 30 mg single dose, fed (high-fat meal)): 36.8 h
- Tmax (clinical; po): 6 h
- AUC(0-inf) (clinical; [8]): 2060 ng·h/mL
- AUC(0-inf) (clinical; [9]): 1140 ng·h/mL
- AUC(0-inf) (clinical; [10]): 2420 ng·h/mL
- AUC(0-inf) (clinical; [11]): 1180 ng·h/mL
- AUC(0-t) (clinical; [8]): 1720 ng·h/mL
- AUC(0-t) (clinical; [9]): 978 ng·h/mL
- AUC(0-t) (clinical; [10]): 1990 ng·h/mL
- AUC(0-t) (clinical; [11]): 996 ng·h/mL
- Cmax (clinical; [8]): 65.3 ng/mL
- Cmax (clinical; [9]): 35.9 ng/mL
- Cmax (clinical; [10]): 73.1 ng/mL
- Cmax (clinical; [11]): 36.5 ng/mL
- Vd/F (clinical; [10]): 877 L
- Vd/F (clinical; [11]): 1390 L
- increase of aqueous solubility of ledipasvir ([5]; pH 5, 0.1% w/w copovidone): 10 fold
- increase of aqueous solubility of ledipasvir ([5]; pH 5, 0.1% w/w hypromellose): 3 fold
- increase of aqueous solubility of ledipasvir ([5]; pH 5, 0.1% w/w povidone): 4 fold
- Clast, mean ([6]; fasted): 6.8 ng/mL
- Clast, mean ([6]; fed (high-fat meal)): 3.1 ng/mL
- decrease in mean AUCinf [6, 12]: approximately 45%
- decrease in mean AUClast [6, 12]: approximately 45%
- decrease in mean Cmax [6, 12]: approximately 45%
- solubility ([7]; dichloromethane (DCM)): > 500 mg/mL
- solubility ([7]; ethanol): > 500 mg/mL
- solubility ([7]; methanol): > 500 mg/mL
